Data taken from publication PMC9231011, “Irreversible Antagonists for the Adenosine A2B Receptor” (Molecules, 2022).
Where a chain is given by its changes, count along the chain named.

Tests used:
hA3 = biological target: hA3; set-up: method as in PMID 30835463, PMID 31646479; conditions: Figure 1; cited from earlier work
hA2B = biological target: hA2B; set-up: method as in PMID 30835463, PMID 31646479; conditions: Figure 1; cited from earlier work
hA2A = biological target: hA2A; set-up: method as in PMID 30835463, PMID 31646479; conditions: Figure 1; cited from earlier work
hA1 = biological target: hA1; set-up: method as in PMID 30835463, PMID 31646479; conditions: Figure 1; cited from earlier work
[1] = biological target: T1, mutant human A2BAR (K269^7.32L) (Homo sapiens, UniProt P29275, K269L); assay: Homologous competition binding of PSB-603 vs [3H]PSB-603 at mutant; conditions: K269^7.32L mutant
T1 construct: expressed in transfected cells; host or cells: FreeStyle CHO-S cells, pcDNA3.1(+), transient
T1 sequence (P29275 1-332 K269L): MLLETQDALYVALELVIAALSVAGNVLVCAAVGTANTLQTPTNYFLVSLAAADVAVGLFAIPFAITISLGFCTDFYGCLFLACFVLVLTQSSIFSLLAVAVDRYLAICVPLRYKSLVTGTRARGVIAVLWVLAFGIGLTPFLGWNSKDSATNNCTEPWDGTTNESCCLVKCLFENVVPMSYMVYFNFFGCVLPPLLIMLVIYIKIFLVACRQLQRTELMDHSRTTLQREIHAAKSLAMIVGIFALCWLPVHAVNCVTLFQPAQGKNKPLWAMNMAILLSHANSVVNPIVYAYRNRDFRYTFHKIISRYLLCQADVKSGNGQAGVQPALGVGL
Protocol: The human A2AAR, the mutant human A2BAR (K269^7.32L), and the human A3AR were transiently expressed in FreeStyle^TM CHO-S cells using the transfection reagent polyethylenimine (PEI) at a ratio of 1:3 to DNA according to the manufacturer’s guideline. pcDNA3.1(+) was used as the transfection vector containing the cDNA for either the wt ARs or the K269^7.32L mutant A2BAR that was prepared by site-directed mutagenesis with the following primer: forward […], reverse […]. CHO-S cells were grown in FreeStyle^TM CHO Expression Medium supplemented with 8 mM L-glutamine before use and split to 0.5 mio. cells per mL the day before transfection. Twenty-four hours after transfection, cells were spun down by centrifugation for 15 min at 500× g. […]
Binding experiments were performed using 50 mM Tris buffer (pH 7.4) in a total volume of 400 µL for the A1AR, A2AAR, A3AR, and 1000 µL for the A2BAR. […] Non-specific binding was determined in the presence of 10 µM of 2-chloroadenosine, 10 µM of CGS 15943, 10 µM of 8-cyclopently-1,3-dipropylxanthine or 100 µM of (R)-N^6-phenylisopropyadenosine for A1-, A2A-, A2B- and A3ARs, respectively. […] Subsequently, radioactivity was determined using a liquid scintillation counter (Tricarb 2810TR, Perkin Elmer).

A2BAR = biological target: T2, A2BAR (Homo sapiens, UniProt P29275); set-up: purchased Perkin Elmer ES-013-M400UA; method as in PMID 19569717; conditions: wt A2BAR; read-out: KD of [3H]PSB-603; cited from earlier work
T2 sequence (P29275 1-332): T1 sequence (P29275 1-332 K269L) with L269K

SMILES	Ki (hA3) [nM]	Ki (hA2B) [nM]	Ki (hA2A) [nM]	Ki (hA1) [nM]	KD of [3H]PSB-603 [1]	Kd [1] [nM]	Kd (A2BAR) [nM]
CCn1c(=O)c2c(nc(/C=C/c3ccc(OC)c(OC)c3)n2C)n(CC)c1=O [Istradefylline, istradefylline]	4470	> 10000	26.4	841			
CCCn1c(=O)[nH]c2nc(-c3ccc(S(=O)(=O)N4CCN(c5ccc(Cl)cc5)CC4)cc3)[nH]c2c1=O [PSB-603]	> 10000	0.553	> 10000	> 10000	did not alter	0.292 ± 0.034	0.553 ± 0.103
CCCn1c(=O)[nH]c2nc(-c3ccc(S(=O)(=O)N4CCN(c5ccc(Br)cc5)CC4)cc3)[nH]c2c1=O [PSB-1901]	> 1000	0.0835	> 1000	> 1000			
